# Experimental data as given in ChEMBL document CHEMBL4270663, “6-Benzhydryl-4-amino-quinolin-2-ones as Potent Cannabinoid Type 1 (CB1) Receptor Inverse Agonists and Chemical Modifications for Peripheral Selectivity” (J Med Chem, 2018).
# Active and inactive are the calls of the source. The calls are words filed in the database; no cut-off is given here.
# Experiments:
# Cannabinoid receptor 1 = Cannabinoid receptor 1 (Homo sapiens, UniProt P21554); assay: Inverse agonist activity at human CB1 receptor expressed in HEK293 cells assessed as inhibition of forskolin-induced cAMP accumulation after 30 mins by HTRF assay; assay type: functional, cell-based
# Sequence of Cannabinoid receptor 1 (P21554 whole entry): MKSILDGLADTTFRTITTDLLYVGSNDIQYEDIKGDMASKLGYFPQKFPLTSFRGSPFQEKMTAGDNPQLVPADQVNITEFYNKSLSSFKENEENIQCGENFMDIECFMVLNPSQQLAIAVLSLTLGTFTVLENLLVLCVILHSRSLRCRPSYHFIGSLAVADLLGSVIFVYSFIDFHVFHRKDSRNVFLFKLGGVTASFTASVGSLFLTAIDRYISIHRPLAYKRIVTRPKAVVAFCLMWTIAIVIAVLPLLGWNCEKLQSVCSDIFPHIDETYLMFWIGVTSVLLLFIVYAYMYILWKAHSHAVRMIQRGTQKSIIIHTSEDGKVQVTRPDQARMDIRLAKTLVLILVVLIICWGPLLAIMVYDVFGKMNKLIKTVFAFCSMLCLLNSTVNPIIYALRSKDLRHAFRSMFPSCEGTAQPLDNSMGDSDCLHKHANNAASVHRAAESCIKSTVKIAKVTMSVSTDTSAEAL
# Cannabinoid receptor 2 = Cannabinoid receptor 2 (Homo sapiens, UniProt P34972); assay: Inverse agonist activity at human CB2 receptor expressed in HEK293 cells assessed as […] cAMP accumulation after 30 mins by HTRF assay; assay type: functional, cell-based
# Sequence of Cannabinoid receptor 2 (P34972 whole entry): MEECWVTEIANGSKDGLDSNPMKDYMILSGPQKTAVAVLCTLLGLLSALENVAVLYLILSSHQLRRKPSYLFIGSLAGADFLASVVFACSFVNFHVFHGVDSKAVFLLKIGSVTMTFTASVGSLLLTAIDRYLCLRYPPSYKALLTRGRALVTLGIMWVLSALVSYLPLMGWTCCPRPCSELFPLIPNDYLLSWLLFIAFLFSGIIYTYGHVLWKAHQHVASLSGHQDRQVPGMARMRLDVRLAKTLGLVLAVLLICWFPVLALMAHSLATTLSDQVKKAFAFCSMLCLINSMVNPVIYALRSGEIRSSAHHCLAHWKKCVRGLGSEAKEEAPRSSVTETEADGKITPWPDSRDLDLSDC
# [1] = Metabolic stability in mouse liver microsomes assessed as parent compound remaining at 1 uM after 10 mins in presence of NADPH; assay type: ADME, microsome; conditions: read-out: Stability
# [2] = Ratio of drug level in C57BL/6J mouse brain to plasma at 20 mg/kg, po measured after 4 hrs; assay type: ADME, organism-based; conditions: read-out: BPR
# [3] = Drug uptake in C57BL/6J mouse brain at 20 mg/kg, po measured after 4 hrs; assay type: ADME, organism-based; conditions: in vivo
# [4] = Drug uptake in C57BL/6J mouse plasma at 20 mg/kg, po measured after 1 hr; assay type: ADME, organism-based
# [5] = Drug uptake in C57BL/6J mouse brain at 20 mg/kg, po measured after 1 hr; assay type: ADME, organism-based; conditions: in vivo, BLD = below limit of detection
# [6] = Metabolic stability in human liver microsomes assessed as parent compound remaining at 1 uM after 10 mins in presence of NADPH; assay type: ADME, microsome; conditions: read-out: Stability
# [7] = Drug uptake in C57BL/6J mouse plasma at 20 mg/kg, po measured after 4 hrs; assay type: ADME, organism-based
# [8] = Metabolic stability in rat liver microsomes assessed as parent compound remaining at 1 uM after 10 mins in presence of NADPH; assay type: ADME, microsome; conditions: read-out: Stability
# Cytochrome P450 2C19 = Cytochrome P450 2C19 (Homo sapiens, UniProt P33261); assay: Inhibition of CYP2C19 in human liver microsomes using (S)-mephenytoin as substrate after 10 to 30 mins by LC/MS analysis; assay type: ADME
# Sequence of Cytochrome P450 2C19 (P33261 whole entry): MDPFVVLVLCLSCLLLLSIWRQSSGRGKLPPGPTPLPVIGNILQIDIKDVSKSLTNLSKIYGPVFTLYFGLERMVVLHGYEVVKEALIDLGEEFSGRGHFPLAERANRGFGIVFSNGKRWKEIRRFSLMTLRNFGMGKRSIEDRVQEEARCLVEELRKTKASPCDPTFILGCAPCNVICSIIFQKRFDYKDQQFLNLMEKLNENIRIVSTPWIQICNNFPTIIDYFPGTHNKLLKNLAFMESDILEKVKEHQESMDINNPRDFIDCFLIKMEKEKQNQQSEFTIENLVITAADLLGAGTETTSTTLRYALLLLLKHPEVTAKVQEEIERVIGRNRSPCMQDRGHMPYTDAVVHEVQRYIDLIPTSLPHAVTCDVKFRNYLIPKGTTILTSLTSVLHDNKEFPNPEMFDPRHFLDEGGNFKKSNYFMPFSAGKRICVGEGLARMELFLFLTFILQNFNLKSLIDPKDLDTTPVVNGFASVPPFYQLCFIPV
# Cytochrome P450 1A2 = biological target: T1, Cytochrome P450 1A2 (Homo sapiens, UniProt P05177); assay: Inhibition of CYP1A2 in human liver microsomes using phenacetin as substrate after 10 to 30 mins by LC/MS analysis; assay type: ADME
# T1 sequence (P05177 whole entry): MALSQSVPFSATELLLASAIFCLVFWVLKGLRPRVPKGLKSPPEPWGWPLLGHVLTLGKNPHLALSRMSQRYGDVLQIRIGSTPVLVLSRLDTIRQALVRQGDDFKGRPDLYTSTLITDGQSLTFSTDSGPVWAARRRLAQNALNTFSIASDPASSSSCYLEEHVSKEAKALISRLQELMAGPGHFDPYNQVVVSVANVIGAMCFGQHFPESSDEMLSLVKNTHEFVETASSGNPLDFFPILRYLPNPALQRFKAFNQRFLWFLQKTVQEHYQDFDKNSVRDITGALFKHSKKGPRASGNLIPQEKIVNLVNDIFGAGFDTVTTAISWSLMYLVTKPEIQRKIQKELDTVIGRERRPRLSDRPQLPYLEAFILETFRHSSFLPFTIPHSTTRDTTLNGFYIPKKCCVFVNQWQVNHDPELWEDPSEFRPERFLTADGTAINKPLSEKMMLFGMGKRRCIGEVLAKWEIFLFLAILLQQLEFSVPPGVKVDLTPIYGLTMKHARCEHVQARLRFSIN
# Cytochrome P450 3A4 = Cytochrome P450 3A4 (Homo sapiens, UniProt P08684); assay: Inhibition of CYP3A4 in human liver microsomes using midazolam/testosterone as substrate after 10 to 30 mins by LC/MS analysis; assay type: ADME
# Sequence of Cytochrome P450 3A4 (P08684 whole entry): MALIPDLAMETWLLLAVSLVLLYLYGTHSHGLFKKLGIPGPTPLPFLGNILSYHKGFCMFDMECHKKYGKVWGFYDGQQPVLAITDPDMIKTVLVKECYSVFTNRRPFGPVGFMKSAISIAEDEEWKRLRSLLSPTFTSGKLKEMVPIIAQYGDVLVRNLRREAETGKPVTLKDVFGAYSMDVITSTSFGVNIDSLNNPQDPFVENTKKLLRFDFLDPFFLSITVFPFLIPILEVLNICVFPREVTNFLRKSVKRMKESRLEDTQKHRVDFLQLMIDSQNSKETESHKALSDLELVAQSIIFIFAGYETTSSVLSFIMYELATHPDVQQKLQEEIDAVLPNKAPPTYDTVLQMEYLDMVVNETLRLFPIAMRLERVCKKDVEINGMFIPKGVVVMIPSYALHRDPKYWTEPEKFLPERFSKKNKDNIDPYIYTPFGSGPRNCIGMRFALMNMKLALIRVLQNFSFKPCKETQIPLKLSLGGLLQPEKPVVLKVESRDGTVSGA
# Cytochrome P450 2C9 = Cytochrome P450 2C9 (Homo sapiens, UniProt P11712); assay: Inhibition of CYP2C9 in human liver microsomes using tolbutamide as substrate after 10 to 30 mins by LC/MS analysis; assay type: ADME
# Sequence of Cytochrome P450 2C9 (P11712 whole entry): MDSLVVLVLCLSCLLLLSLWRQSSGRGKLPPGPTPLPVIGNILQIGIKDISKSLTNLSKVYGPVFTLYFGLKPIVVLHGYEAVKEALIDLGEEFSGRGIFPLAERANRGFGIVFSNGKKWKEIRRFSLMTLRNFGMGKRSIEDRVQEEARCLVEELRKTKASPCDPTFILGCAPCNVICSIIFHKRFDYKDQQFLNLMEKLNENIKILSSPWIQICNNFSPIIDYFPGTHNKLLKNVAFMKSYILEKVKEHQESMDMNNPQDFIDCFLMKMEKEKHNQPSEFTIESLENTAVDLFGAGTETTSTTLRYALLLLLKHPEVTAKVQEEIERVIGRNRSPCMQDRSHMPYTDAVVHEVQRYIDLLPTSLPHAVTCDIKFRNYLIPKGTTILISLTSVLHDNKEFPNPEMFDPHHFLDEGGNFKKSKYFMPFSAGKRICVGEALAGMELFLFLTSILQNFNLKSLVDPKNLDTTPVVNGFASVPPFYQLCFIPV
# Cytochrome P450 2D6 = Cytochrome P450 2D6 (Homo sapiens, UniProt P10635); assay: Inhibition of CYP2D6 in human liver microsomes using dextromethorphan as substrate after 10 to 30 mins by LC/MS analysis; assay type: ADME
# Sequence of Cytochrome P450 2D6 (P10635 whole entry): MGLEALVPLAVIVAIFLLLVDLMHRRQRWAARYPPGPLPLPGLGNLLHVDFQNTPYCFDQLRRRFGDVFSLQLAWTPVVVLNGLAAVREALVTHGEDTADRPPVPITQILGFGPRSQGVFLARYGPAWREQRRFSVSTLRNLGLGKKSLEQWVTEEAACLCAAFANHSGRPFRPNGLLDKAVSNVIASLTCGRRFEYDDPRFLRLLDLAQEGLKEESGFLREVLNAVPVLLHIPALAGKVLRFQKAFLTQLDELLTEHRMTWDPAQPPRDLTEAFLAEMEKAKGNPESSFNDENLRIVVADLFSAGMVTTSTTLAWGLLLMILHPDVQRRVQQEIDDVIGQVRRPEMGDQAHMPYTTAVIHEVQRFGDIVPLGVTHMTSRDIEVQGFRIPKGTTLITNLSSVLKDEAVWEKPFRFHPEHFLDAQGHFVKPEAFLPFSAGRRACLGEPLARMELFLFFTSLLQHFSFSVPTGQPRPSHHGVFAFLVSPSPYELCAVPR
# [9] = Drug uptake in brain of diet-induced obese C57BL/6J mouse model at 10 mg/kg administered as daily dose measured at 2 hrs post last dose on day 5; assay type: ADME, organism-based; conditions: in vivo
# Mus musculus [10] = assay: Antiobesity activity in diet induced obese C57BL/6J mouse model assessed as decrease in food intake at 10 mg/kg administered as daily dose measured every day for 5 days; assay type: functional, organism-based
# [11] = Ratio of drug level in brain to plasma of diet-induced obese C57BL/6J mouse model at 10 mg/kg administered as daily dose measured at 2 hrs post last dose on day 5; assay type: ADME, organism-based; conditions: read-out: BPR
# Mus musculus [12] = assay: In vivo receptor occupancy at CB1 receptor in brain of diet induced obese C57BL/6J mouse model at 10 mg/kg, po administered as daily dose for 5 days measured 10 mins post last dose in presence of [3H]-CP-55940 relative to control; assay type: functional
# Mus musculus [13] = assay: Antiobesity activity in diet induced obese C57BL/6J mouse model assessed as decrease in body weight at 10 mg/kg administered as daily dose measured every day for 5 days; assay type: functional, organism-based
# [14] = Drug uptake in plasma of diet-induced obese C57BL/6J mouse model at 10 mg/kg administered as daily dose measured at 2 hrs post last dose on day 5; assay type: ADME, organism-based
smiles,measurement,setting,value
O=c1cc([C@@H]2C[C@@H]2c2ccccc2)c2cc(C(c3ccc(Cl)cc3)n3ccnc3)ccc2[nH]1 (stereo not given in full),EC50,Cannabinoid receptor 1,66 nM
COCCCc1cc(C(c2ccc(Cl)cc2)c2ccc(Cl)cc2)cc2c(NC3CCN(S(=O)(=O)C(F)(F)F)CC3)cc(=O)[nH]c12,EC50,Cannabinoid receptor 2,61 nM
COCCOCCOCCOCCOCCOCCOCCOc1cc(NC2CCN(S(=O)(=O)C(F)(F)F)CC2)c2cc(C(c3ccc(Cl)cc3)c3ccc(Cl)cc3)ccc2n1,EC50,Cannabinoid receptor 2,5900 nM
same,EC50,Cannabinoid receptor 1,457 nM
O=c1cc(NC2CCN(c3ncccn3)CC2)c2cc(C(c3ccc(Cl)cc3)c3ccc(Cl)cc3)ccc2[nH]1,"remaining at 10 min, 1 µM",[1],57%
same,Kp at 4 h,[2],0.037
same,Drug uptake,[3],0.107 nmol/g
same,concentration at 1 h,[4],4160 nM
same,Drug uptake,[5],Bld
same,"remaining at 10 min, 1 µM",[6],43%
same,concentration at 4 h,[7],2890 nM
same,"remaining at 10 min, 1 µM",[8],69%
O=S(=O)(N1CCC(Nc2ccnc3c(O)cc(C(c4ccc(Cl)cc4)c4ccc(Cl)cc4)cc23)CC1)C(F)(F)F,EC50,Cannabinoid receptor 1,399 nM
O=C(Nc1cc(=O)[nH]c2ccc(C(c3ccc(Cl)cc3)n3ccnc3)cc12)c1ccccc1 (stereo not given),EC50,Cannabinoid receptor 1,> 10000 nM
O=c1cc(NC2CCN(S(=O)(=O)C(F)(F)F)CC2)c2cc(Cc3ccc(Cl)cc3)ccc2[nH]1,EC50,Cannabinoid receptor 1,260 nM
O=c1cc(Cc2ccc(OC(F)(F)F)cc2)c2cc(C(c3ccc(Cl)cc3)n3ccnc3)ccc2[nH]1 (stereo not given),EC50,Cannabinoid receptor 1,113 nM
O=C(O)c1cccc(S(=O)(=O)N2CCC(Nc3cc(=O)[nH]c4ccc(C(c5ccc(Cl)cc5)c5ccc(Cl)cc5)cc34)CC2)c1,EC50,Cannabinoid receptor 2,8690 nM
CCOC(=O)CC(=O)N1CCC(Nc2cc(=O)[nH]c3ccc(C(c4ccc(Cl)cc4)c4ccc(Cl)cc4)cc23)CC1,EC50,Cannabinoid receptor 1,13.5 nM
COCCOc1cc(NC2CCN(S(=O)(=O)C(F)(F)F)CC2)c2cc(C(c3ccc(Cl)cc3)c3ccc(Cl)cc3)ccc2n1,EC50,Cannabinoid receptor 1,22 nM
O=c1cc(NC2CCN(S(=O)(=O)C(F)(F)F)CC2)c2cc(C(c3ccc(Cl)cc3)c3nccs3)ccc2[nH]1 (stereo not given),"remaining at 10 min, 1 µM",[1],47.8%
same,IC50,Cytochrome P450 2C19,8000 nM
same,IC50,Cytochrome P450 1A2,> 10000 nM
same,"remaining at 10 min, 1 µM",[6],62.2%
same,IC50,Cytochrome P450 3A4,> 10000 nM
same,IC50,Cytochrome P450 2C9,> 10000 nM
same,"remaining at 10 min, 1 µM",[8],60.1%
same,IC50,Cytochrome P450 2D6,> 10000 nM
O=C(O)CCCCCOc1cc(NC2CCN(S(=O)(=O)C(F)(F)F)CC2)c2cc(C(c3ccc(Cl)cc3)c3ccc(Cl)cc3)ccc2n1,EC50,Cannabinoid receptor 2,61 nM
CS(=O)(=O)N1CCC(Nc2cc(=O)[nH]c3ccc(C(c4ccc(Cl)cc4)c4ccc(Cl)cc4)cc23)CC1,EC50,Cannabinoid receptor 2,> 10000 nM
O=C(O)COc1cc(C(c2ccc(Cl)cc2)c2ccc(Cl)cc2)cc2c(NC3CCN(S(=O)(=O)C(F)(F)F)CC3)ccnc12,EC50,Cannabinoid receptor 2,> 10000 nM
O=c1cc(NC2CCN(S(=O)(=O)C(F)(F)F)CC2)c2cc(C(c3ccc(Cl)cc3)n3ccnc3)ccc2[nH]1 (stereo not given),EC50,Cannabinoid receptor 1,5 nM
O=c1cc(/C=C/c2ccc(C(F)(F)F)cc2)c2cc(C(c3ccc(Cl)cc3)c3nccs3)ccc2[nH]1 (stereo not given),IC50,Cytochrome P450 2C19,> 10000 nM
same,IC50,Cytochrome P450 1A2,> 10000 nM
same,IC50,Cytochrome P450 3A4,> 10000 nM
same,IC50,Cytochrome P450 2C9,> 10000 nM
same,IC50,Cytochrome P450 2D6,> 10000 nM
O=c1cc(CCc2ccccc2)c2cc(C(c3ccc(Cl)cc3)n3ccnc3)ccc2[nH]1 (stereo not given),EC50,Cannabinoid receptor 1,> 10000 nM
COc1ccc(C(c2ccc(Cl)cc2)c2ccc3[nH]c(=O)cc(NC4CCN(S(=O)(=O)C(F)(F)F)CC4)c3c2)cc1 (stereo not given),EC50,Cannabinoid receptor 1,8.4 nM
O=c1cc(/C=C/c2ccccc2)c2cc(C(c3ccc(Cl)cc3)n3ccnc3)ccc2[nH]1 (stereo not given),EC50,Cannabinoid receptor 1,165 nM
O=c1cc(OCc2ccccc2)c2cc(C(c3ccc(Cl)cc3)n3ccnc3)ccc2[nH]1 (stereo not given),EC50,Cannabinoid receptor 1,1150 nM
O=c1cc(/C=C/c2ccccc2)c2cc(C(O)c3ccc(Cl)cc3)ccc2[nH]1 (stereo not given),EC50,Cannabinoid receptor 1,> 10000 nM
O=c1cc(N[C@@H]2CCN(S(=O)(=O)C(F)(F)F)C2)c2cc(C(c3ccc(Cl)cc3)c3nccs3)ccc2[nH]1 (stereo not given in full),"remaining at 10 min, 1 µM",[1],19.1%
same,"remaining at 10 min, 1 µM",[6],20.4%
same,"remaining at 10 min, 1 µM",[8],27.9%
Cc1c(C(=O)NN2CCCCC2)nn(-c2ccc(Cl)cc2Cl)c1-c1ccc(Cl)cc1 [RIMONABANT],Drug uptake,[9],1.46 nmol/g
same,Activity,Mus musculus [10],Active
same,Kp at 2 h,[11],0.98
same,Occ,Mus musculus [12],81.7%
same,Activity,Mus musculus [13],Active
same,concentration at 2 h,[14],1500 nM
